Data set [1] is described as follows: Zeta potential of particles measured with Zetasizer. Format: physicochemical. As to conditions: PBS pH 7.4, FIG. 2. The protocol:
(§1) Malvern Zetasizer Nano ZS90; Size parameters:
(§2) Material: Protein RI: 1.45 Absorption: 0.00, Dispersant: Water 25° C.: 0.8872 cP RI: 1.330; 37° C.: 0.6864 cP RI: 1.330, Cell: DTS 1060C: Clear disposable zeta cell
(§3) Measurement: Automatic 3 runs, positioning method: seek for optimum position, automatic attention selection, analysis model: general purpose
Zeta parameters: Dielectric constant: 78.5 at 25° C. and 74.4 at 37° C.
Model: Smoluchowski F(KA)value: 1.5, measurement: automatic 3 runs Automatic attention selection
(§4) Peptide oxidation: The peptide was dissolved to a concentration below 1 mM (2.75 mg/mL) in phosphate buffered saline (PBS), pH 7.4. (Ph. Eur.), e.g., 5 mg in 10 mL (=0.5 mg/mL). The solution was purged with pure oxygen for 5 minutes at 37° C. Incubate for 2 h at 37° C.
(§5) For the bacterial lysate dilution 1 mL of bacterial cell lysate were diluted up to 10 mL with PBS pH 7.4. (Ph. Eur.).
(§6) Attachment to the lysate particles was achieved by adding 1 ml bacterial lysate (=1.2 mg E. coli) with 0.097714286 mg hLF.
(§7) 20 μL of a 0.5 mg/mL solution of peptide were added to 1 mL of the previously diluted vaccine (0.12 mg/mL) and incubated 2 hours under low stirring, 100-150 rpm, at 4° C., preventing any foam building

For data set [2], the system named is IgG immuno response. Nature of the data set: Total IgG by ELISA in rats treated with bacterial lysate, hLf fragment or their combination. Format: in vivo. The protocol: Bacterial lysate: Klebsiella pneumoniae CECT 141; 12.000 million bacteria/mL (ten times the final concentration), Standard non-glycerinated formulation, without phenol hLF fragment, […] (SEQ ID NO: 1) oxidised form, as lyophilisate product; dosed in vials of 50 mg each, in 25 mL vials, to be reconstituted and used as stock solution for the length of the assay. Once reconstituted, keep cooled (4° C.)
Reconstitution of the hLF stock solution was performed by reconstitution of the 50 mg hLF fragment in a vial by addition of 20 mL of PBS. It was ensured a complete, proper reconstitution to a clear, homogeneous, particle-free solution. The vial was gently shaken by repeated inversion of the closed vial. The result was the hLF-stock solution for the trial: nominal concentration 2.5 mg/mL.
The hLF dilution for the animal trial was performed daily. For this 1 mL of the reconstituted hLF stock solution were transferred into a new 25 mL vial, followed by adding 21.5 mL of PBS and carefully mixing by repeated inversions of the closed vial to avoid foam formation. The result was the daily stock dilution, nominal concentration 0.1 mg/ml.
4.5 ml of the daily hLf dilution were transferred to a suitable vial (5 ml capacity or bigger), followed by adding 0.5 ml of the 12,000 million bacteria/mL bacterial lysate, and carefully mixing by repeated inversions of the closed vial to avoid foam formation. The result was 5 ml of A+B vaccine, 1200 million bacteria/ml, 0.1 mg hLf fragment/ml, ensuring the ratio 12:1.
4.5 ml of the daily hLf dilution were transferred to a suitable vial (5 ml capacity or bigger), followed by adding 0.5 ml of PBS and carefully mixing by repeated inversions of the closed vial and avoid foam formation. The result was 5 ml of 0.1 mg/ml hLf fragment solution.
0.5 ml of the bacterial lysate (12,000 million bacteria/ml) were transferred to a suitable vial (5 ml capacity or bigger), followed by adding 4.5 ml of PBS, and carefully mixing by repeated inversions of the closed vial and avoid foam formation. […]
The parameter to be measured is total IgG. […]

Data set [3] deals with IgG antibody. Nature of the data set: Diffusion kinetics of hLf fragment mixed with protein, time-correlation confocal microscopy with fluorescent labels. Format: binding. As to conditions: protein II, selective IgG antibody. The text has this: (§8) 3 different classes of cell-culture and blood derived naturally glycosylated proteins were mixed together in a native, that is, physiologically similar standard electrolyte buffer with the concentration shown in the Table with the same 22-mer of the human-lactoferrin peptides described above (using Sequence […] (SEQ ID NO: 1)).
(§9) The protein I is Albumin a blood protein fraction, known in its recombinant human version or as blood-product, protein II is a selective IgG antibody. Both from commercial sources. hLf as the reference moves as “free” in the volume element of the focus of the microscope whereas about 4% or 15% respectively of the fragment are unspecifically bound and moves slower.

Data set [4] has as its target T1, Albumin (Bos taurus, UniProt P02769).
T1 construct: purchased
Described as above. To be noted: protein I. Format: binding.
Source text: as §8, §9

A short description of data set [5]: Particle size (diameter) measured with Zetasizer. Format: physicochemical. To be noted: PBS pH 7.4, FIG. 1. Here is the method: as §1, §2, §3, §4, §5, §6, §7
Data set [6] in a line: Diffusion kinetics of free hLf fragment (reference), time-correlation confocal microscopy with fluorescent labels. Format: physicochemical. To be noted: hLf alone as reference.
Source text: as §8, §9

T1 sequence (P02769 25-607): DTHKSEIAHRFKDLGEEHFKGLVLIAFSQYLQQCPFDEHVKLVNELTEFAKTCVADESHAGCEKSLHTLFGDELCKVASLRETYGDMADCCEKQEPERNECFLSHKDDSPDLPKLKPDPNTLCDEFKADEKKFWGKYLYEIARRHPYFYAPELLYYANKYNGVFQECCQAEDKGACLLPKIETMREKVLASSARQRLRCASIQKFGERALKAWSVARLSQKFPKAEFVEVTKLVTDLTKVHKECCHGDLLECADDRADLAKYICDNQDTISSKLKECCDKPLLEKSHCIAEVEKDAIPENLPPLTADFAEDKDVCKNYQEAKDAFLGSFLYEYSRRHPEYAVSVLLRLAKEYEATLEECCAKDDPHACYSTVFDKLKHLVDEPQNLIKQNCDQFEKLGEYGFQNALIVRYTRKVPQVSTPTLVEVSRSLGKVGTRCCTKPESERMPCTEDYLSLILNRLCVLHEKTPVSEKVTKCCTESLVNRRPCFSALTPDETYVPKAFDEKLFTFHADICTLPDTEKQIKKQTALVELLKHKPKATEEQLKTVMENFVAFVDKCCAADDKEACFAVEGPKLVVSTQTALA

In the case of “KCFQWQRNMRKVRGPPVSCIKR (listed as Homo sapiens) [hLf, human lactoferrin derived peptide, 22-mer, used as antigen masking agent]”, the “Zeta potential (surface charge of particles)” value in data set [1] is recorded as “overall positive charge”. In addition, in data set [2] (independent of the mode of administration (i.p. or intragastric), days 0-27), the “Variation in the IgG levels over time” value is “does not appear to induce any effect on IgG levels over time”. Moreover, the “IgG levels compared with hLf+extract group” value in data set [2] (intragastric, day 6) is given as “superior IgG levels”. Also, the “IgG levels compared with control group” value in data set [2] (intraperitoneal, day 6 to day 27) is recorded as “no statistically significant difference”. For the same sequence, the “fragment unspecifically bound (moves slower)” value in data set [3] is recorded as roughly 15%. For the same sequence, the “fragment unspecifically bound (moves slower)” value in data set [4] was “about 4%”. In data set [5], the “Particle size (aggregation)” value is recorded as “Aggregation is prone to occur”. In data set [6], this sequence returned a TauD1 of 33 us, a TauD2 of 1419 us and a f1 of 99%.

For the origin of these results see US9724422B2, “Human lactoferrin derived peptide for use as an antigen masking agent” (Evonik Roehm GmbH, priority 2010, dated 2017).
